# Results published in patent publication US20120101109A1, “ETHANOLAMINE SALT OF N- (3-METHOXY-5-METHYLPYRAZIN-2YL) -2- (4-[1, 3, 4-OXADIAZOLE-2-YL] PHENYL) PYRIDINE-3- SULPHONAMIDE” (ASTRAZENECA AB, priority 2005, published 2012).
# Marks after values point to notes of the source that are not given here.
# Tests used:
# [1] = Stability of the salts on storage, assessed by NMR; settings: for stability of the salt: prolonged storage at ambient (400 MHz proton NMR), ammonium salt also vacuum drying at 50° C. overnight
# [2] = Intrinsic dissolution rate, fibre optic UV probe with SOTAX dissolution apparatus; type: physicochemical; settings: pH 6.5 buffer, 37° C., 50 mg discs, UV at 260 nm, triplicate
# Experimental: The intrinsic dissolution rate was determined by using a fibre optic UV probe, measuring at 260 nm, with a SOTAX dissolution apparatus. Each of the pots in the dissolution batch was filled with 500 ml of pH 6.5 buffer and heated to 37° C. 50 mg Of each compound was weighed out in triplicate. Each of these samples was placed into a 4 mm dye and compressed at 50 psi for 5 minutes to produce suitable discs. These discs were then placed into the dissolution bath and the UV absorbance measured at regular intervals. Standards were prepared at approximately 20 μg/ml concentrations in pH 6.5 buffer. Scans of the background and corresponding standards were taken and a standard recovery check was produced.
# [3] = Solubility of the salts in water, N-methylpyrrolidinone and IMS
smiles,measurement,setting,value
COc1nc(C)cnc1NS(=O)(=O)c1cccnc1-c1ccc(-c2nnco2)cc1.N [Compound (I) Ammonium Salt],stability of the salt,[1],relatively unstable
same,IDR (intrinsic dissolution rate),[2],0.14 mg/min/cm^2
same,solubility in N-methylpyrrolidinone,[3]; N-methylpyrrolidinone,is not
same,solubility in water,[3]; water,very water soluble
COc1nc(C)cnc1NS(=O)(=O)c1cccnc1-c1ccc(-c2nnco2)cc1.NCCO [Compound (I) Ethanolamine Salt],stability of the salt assessed by NMR,[1]; 2 days at 50° C.,stable
same,IDR (intrinsic dissolution rate),[2],0.84 mg/min/cm^2
COc1nc(C)cnc1[N-]S(=O)(=O)c1cccnc1-c1ccc(-c2nnco2)cc1.[Na+] [Compound (I) Sodium Salt],stability of the salt,[1],very stable
same,IDR (intrinsic dissolution rate),[2],1.37 ^a mg/min/cm^2
"COc1nc(C)cnc1NS(=O)(=O)c1cccnc1-c1ccc(-c2nnco2)cc1 [Compound (I), N-(3-methoxy-5-methylpyrazin-2-yl)-2-(4-[1,3,4-oxadiazol-2-yl]phenyl)pyridine-3-sulphonamide]",IDR (intrinsic dissolution rate),[2],0.05 mg/min/cm^2
